Experimental data published in patent US6407257B1, “Derivatives of erythromycin, their preparation process and their use as medicaments” (Aventis Pharma S.A., priority 1998, dated 2002).

Legend:
Streptococcus pyogenes = experiment: Method of dilutions in liquid medium (minimal inhibitory concentration); assay type: cell-based; conditions: incubation 24 hours at 37° C., growth inhibition by transillumination
Protocol: (§1) A—Method of Dilutions in Liquid Medium A series of tubes were prepared in which the same quantity of nutritive sterile medium is distributed. Increasing quantities of the product to be studied are distributed into each tube, then each tube is sown with a bacterial strain. After incubation for 24 hours in a heating chamber at 37° C., the growth inhibition is evaluated by transillumination, which allows the minimal inhibitory concentrations to be determined, expressed in micrograms/cm^3. The following results were obtained

Streptococcus pneumoniae = experiment: as above; assay type: cell-based; conditions: incubation 24 hours at 37° C., growth inhibition by transillumination
Protocol: as §1

“2-Fluoro-11,12-dideoxy-3-de[(2,6-dideoxy-3-C-methyl-3-0-methyl-alpha-L-ribohexopyranosyl)oxy]-6-0-methyl-3-oxo-12,11-[oxycarbonyl[[4-[4-(4-aminophenyl)-1H-imidazol-1-yl]butyl]imino]]-eryrthromycin [EX. 2]” was tested, and the minimal inhibitory concentrations (Streptococcus pyogenes) was 0.3 micrograms/cm^3 and the minimal inhibitory concentrations (Streptococcus pneumoniae) was 0.150 micrograms/cm^3.
With `CCC1OC(=O)C(C)C(=O)C(C)C(OC2OC(C)CC(N(C)C)C2O)C(C)(OC)CC(C)C(=O)C(C)C2N(CCCCn3cnc(-c4ccc(N)cc4)c3)C(=O)OC12C` [EX. 1, 11,12-Dideoxy-3-de[(2,6-dideoxy-3-C-methyl-3-0-methyl-alpha-L-ribohexopyranosyl)oxy]-6-0-methyl-3-oxo-12,11-[oxycarbonyl-[[4-[4-(4-aminophenyl)-1H-imidazol-1-yl]butyl]imino]]-eryrthromycin] the minimal inhibitory concentrations (Streptococcus pyogenes) was 2.5 micrograms/cm^3 and the minimal inhibitory concentrations (Streptococcus pneumoniae) was 1.2 micrograms/cm^3.
